In patent publication US8822198B2, “Method for optimizing a biopharmaceutical production process” (priority 2009, dated 2014):
“Also recorded” adds a separate entry of the source.

How the values were obtained:
CHO [1] = assay: Bioreactor fermentation, pCO2 regulated/unregulated and buffer systems (Example 3); assay type: cell-based, Chinese Hamster
Experimental: The fermentation using the multifermenter is again preceded by an optimising test using SDR. In this preliminary test, in accordance with Example 1, different NaHCO3 concentrations are tested in conjunction with the media Sod-β/H and TES/K. In the experiment, in addition to the evaluation by the drop in pO2, an identically covered well plate is used having pH sensors. […] (The data from the preliminary test are not shown here.) Fermentation takes place in two multifermenters (corresponding to twelve individual fermenters) with different media combinations. The procedure and handling are based on the sections described under the headings Equipment, Methods and Operating steps. [table] The CO2 profile shown above applies to the regulated bioreactor FS 33.1. in the remaining fermenters, after the seeding (d0), for a specific length of time at a specific control magnitude, CO2(gas) is added in order to provide the cells with a minimum of dissolved CO2. […] In the context of determining cell density it was jointly decided that no further manual interventions are required for supplying CO2 gas. [table]

CHO [2] = assay: Shake flask experiment, buffer screen (Example 2); assay type: cell-based, Chinese Hamster; conditions: shake flasks; for cell growth / buffer performance: 11 d, incubator 1
Experimental: The selection of the buffer systems (cell-free) is now operated with cells. The criterion for the choice of the buffer systems used in this experiment is an acceptable osmolality and good buffer characteristics during the introduction of gas into the shake flask incubator. […] The objective is to determine the best buffer medium, in relation to the growth performance of the cell, as a basis for a subsequent fermentation in the bioreactor. The preparation is carried out analytically as precisely as possible. The pH values are adjusted by BGA comparison. Lower buffer concentrations are added by means of stock solutions. After manufacture, sterile filtration is carried out. As a safety measure the experiments are carried out with n=2. To achieve two different gas supply variants, the experiments are split between two different incubators. A summary can be found in the experiment plan. […] The analysis on d0 (day 0) was carried out immediately after the seeding under the LAF box, i.e. without any previous effect of the CO2 atmosphere of the incubator.

CHO [3] = assay: Fermentation verification buffer system (Example 4); assay type: cell-based, Chinese Hamster; conditions: CO2-regulated bioreactors, NaHCO3 0-16 mM, FIG. 6
From the text: In six CO2-regulated bioreactors the buffer systems TES and Sod-β are used with different concentrations of NaHCO3, in order to determine the optimum concentration of NaHCO3 in the medium. […] Medium B, NaHCO3-free, MOPS-free+weighed amount/stock solution buffer substance(s) • Feeding: […] NaOH (1.2M) (no CO2) • pCO2: day 0-3 5%, day 3-11 3% The buffer systems used with different concentrations of NaHCO3 are shown in Table 6. [table]

CHO [4] = conditions: acid added on day 3, FIG. 9B
Experimental: Different acids are added to three CO2-regulated bioreactors for a pH shift from 6.95 to 6.8 on day 3. The concentrations of the acid solutions are chosen such that the quantities of substance required, which have been determined beforehand in a titration, are present in 50 ml of solution.
The test set-up is described below: • Platform: Bioreactor/Multifermenter • Method: Fed Batch • Cell: CHO • Seeding density: 3×10^5 vc/mL • Start volume: 1.8 L • Run time: 11 days • Medium: Medium B, NaHCO3-free, MOPS-free+Sod-β (25 mM) • Feeding: Feed I continuously from day 2 • Temperature: 37° C. • pO2: 60% • Speed: 160 rpm • pH: day 0-3 7.00±0.05, day 3-11 6.80±0.05 • pH regulation: NaOH (1.2M) (no CO2)

CHO [5] = conditions: Na salt added on day 3, FIG. 8
Experimental: In 10 250 ml shake flasks, cells are tested for their acid tolerance with the addition of sodium salts. The salt solutions are selected such that the quantities of acids determined by titration beforehand are present in 1.5 ml of solution for a pH shift from 7.1 to 6.7. On day 3 these 1.5 ml of the different salt solutions are added to the shake flasks to simulate a pH shift.

| Compound | cell growth / buffer performance (CHO [2]) | standardised product concentration (CHO [4]) | also measured |
| --- | --- | --- | --- |
| [Na+].[OH-] [NaOH, sodium hydroxide solution] | – | – | product formation rate by pH regulation agent (CHO [1]; NaOH versus Na2CO3, FIG. 4): better product formation rate |
| O.O.O.O.O.O=P([O-])([O-])OC(CO)CO.[Na+].[Na+] [Sod-β, sodium-β-glycerophosphate-pentahydrate] | best buffer substances | – | standardised product concentration with different NaHCO3 concentrations (CHO [3]): not dependent on the amount of NaHCO3 in the medium; also recorded: productivity of the cells is independent of the concentration of NaHCO3 |
| O=S(=O)(O)CCNC(CO)(CO)CO [TES, N-tris(hydroxymethyl)methyl-2-aminoethanesulphonic acid] | best buffer substances | – | titre concentration compared with the control (CHO [1]; FIG. 5C, control NaHCO3 36 mmol/L): at the same level as those of the control; standardised product concentration with different NaHCO3 concentrations (CHO [3]): same product concentrations both with and without the use of NaHCO3; also recorded: identical product concentrations |
| NC(CO)(CO)CO [Trizma base] | runs poorly | – | toxicity (CHO [2]; any concentration, pH stable): may be some toxicity |
| Cl [hydrochloric acid] | – | same product concentrations | – |
| O=P(O)(O)O [phosphoric acid] | – | same product concentrations | – |
| CC(=O)[O-].[Na+] [sodium acetate] | – | – | toxic effect on cell growth (CHO [5]): toxic effect |
| O=S(=O)(O)O [sulphuric acid] | – | same product concentrations | – |
